In PubChem BioAssay AID1259411 (Chemical Carcinogenesis Research Information System (CCRIS), 2018):
Calls of active or inactive are those of the source. The rule behind the calls is not given here.

System: rodent carcinogenicity bioassays, tumor incidence
Test: CCRIS carcinogenicity studies
Details: Species: MOUSE
Summary of the method: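 Archive of carcinogenicity, mutagenicity, tumor promotion and tumor inhibition results drawn from journals, NCI reports and other sources, expert-reviewed; covers 1985-2011 and is no longer updated.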

c1ccc2c(c1)cc1ccc3cccc4ccc2c1c34
carcinogen call (Strain/Sex: NIGP(S)/FEMALE, Route: SUBCUTANEOUS, Dose: 0, 0.5, 1 MG IN 1% AQUEOUS GELATIN INJECTED IN THE SCAPULAR REGION OF NEWBORN MICE ONCE (STUDY DURATION: 9 WK), Dose: 0, 0.5, 1 MG IN 1% AQUEOUS GELATIN INJECTED IN THE SCAPULAR REGION OF NEWBORN MICE ONCE (STUDY DURATION: 9 WK), Tumor Site: Type of Lesion: LUNG: ADENOMA): active; positive
carcinogen call (Strain/Sex: NIGP(S)/FEMALE, Route: SUBCUTANEOUS, Dose: 0, 40, 62.5, 125, 250, 500, 1000 UG INJECTED IN THE SCAPULAR REGION OF NEWBORN MICE ONCE (STUDY DURATION: 9 WK), Dose: 0, 40, 62.5, 125, 250, 500, 1000 UG INJECTED IN THE SCAPULAR REGION OF NEWBORN MICE ONCE (STUDY DURATION: 9 WK), Tumor Site: Type of Lesion: LUNG: ADENOMA): active; positive
carcinogen call (Strain/Sex: NIGP(S)/MALE, Route: SUBCUTANEOUS, Dose: 0, 0.5, 1 MG IN 1% AQUEOUS GELATIN INJECTED IN THE SCAPULAR REGION OF NEWBORN MICE ONCE (STUDY DURATION: 9 WK), Dose: 0, 0.5, 1 MG IN 1% AQUEOUS GELATIN INJECTED IN THE SCAPULAR REGION OF NEWBORN MICE ONCE (STUDY DURATION: 9 WK), Tumor Site: Type of Lesion: LUNG: ADENOMA): active; positive
carcinogen call (Strain/Sex: NIGP(S)/MALE, Route: SUBCUTANEOUS, Dose: 0, 40, 62.5, 125, 250, 500, 1000 UG INJECTED IN THE SCAPULAR REGION OF NEWBORN MICE ONCE (STUDY DURATION: 9 WK), Dose: 0, 40, 62.5, 125, 250, 500, 1000 UG INJECTED IN THE SCAPULAR REGION OF NEWBORN MICE ONCE (STUDY DURATION: 9 WK), Tumor Site: Type of Lesion: LUNG: ADENOMA): active; positive
carcinogen call (Strain/Sex: SENCAR/FEMALE, Route: DERMAL, Dose: 0, 12.6, 25.2, 50.2, 101, 202 UG/WK FOR 50-52 WK (STUDY DURATION: 1 YR), Dose: 0, 12.6, 25.2, 50.2, 101, 202 UG/WK FOR 50-52 WK (STUDY DURATION: 1 YR), Tumor Site: Type of Lesion: SKIN: CARCINOMA): active; positive
carcinogen call (Strain/Sex: SENCAR/MALE, Route: DERMAL, Dose: 0, 12.6, 25.2, 50.5, 101, 202 UG/WK FOR 50-52 WK (STUDY DURATION: 1 YR), Dose: 0, 12.6, 25.2, 50.5, 101, 202 UG/WK FOR 50-52 WK (STUDY DURATION: 1 YR), Tumor Site: Type of Lesion: SKIN: CARCINOMA): active; positive
carcinogen call (Strain/Sex: STRAIN-A/FEMALE, Route: GAVAGE, Dose: 0, 1, 2, 3 UMOL IN 0.1 ML COTTONSEED OIL 1/WK FOR 8 WK (STUDY DURATION: 26 WK), Dose: 0, 1, 2, 3 UMOL IN 0.1 ML COTTONSEED OIL 1/WK FOR 8 WK (STUDY DURATION: 26 WK), Tumor Site: Type of Lesion: LUNG: ADENOMA, FORESTOMACH: TUMOR): active; positive
carcinogen call (Strain/Sex: STRAIN-A/FEMALE, Route: INTRAPERITONEAL, Dose: 0, 1, 2, 3 UMOL IN 0.1 ML COTTONSEED OIL 1/WK FOR 8 WK (STUDY DURATION: 26 WK), Dose: 0, 1, 2, 3 UMOL IN 0.1 ML COTTONSEED OIL 1/WK FOR 8 WK (STUDY DURATION: 26 WK), Tumor Site: Type of Lesion: LUNG: ADENOMA, FORESTOMACH: TUMOR): active; positive
carcinogen call (Strain/Sex: STRAIN-A/FEMALE, Route: INTRATRACHEAL, Dose: 0, 0.5, 1 MG ON CHARCOAL POWDER INSTILLED 8 TIMES (STUDY DURATION: 13 WK), Dose: 0, 0.5, 1 MG ON CHARCOAL POWDER INSTILLED 8 TIMES (STUDY DURATION: 13 WK), Tumor Site: Type of Lesion: LUNG: SQUAMOUS CELL CARCINOMA OR ADENOCARCINOMA): active; positive
carcinogen call (Strain/Sex: STRAIN-A/FEMALE, Route: ORAL, Dose: 0, 16, 98 PPM IN DIET FOR 260 D (STUDY DURATION: 260 D), Dose: 0, 16, 98 PPM IN DIET FOR 260 D (STUDY DURATION: 260 D), Tumor Site: Type of Lesion: LUNG: TUMOR, FORESTOMACH: TUMOR): active; positive
carcinogen call (Strain/Sex: STRAIN-A/FEMALE, Route: SUBCUTANEOUS, Dose: 0, 0.5, 1 MG IN 1% AQUEOUS GELATIN INJECTED IN THE SCAPULAR REGION OF NEWBORN MICE ONCE (STUDY DURATION: 9 WK), Dose: 0, 0.5, 1 MG IN 1% AQUEOUS GELATIN INJECTED IN THE SCAPULAR REGION OF NEWBORN MICE ONCE (STUDY DURATION: 9 WK), Tumor Site: Type of Lesion: LUNG: ADENOMA): active; positive
carcinogen call (Strain/Sex: STRAIN-A/FEMALE, Route: SUBCUTANEOUS, Dose: 0, 40, 62.5, 125, 250, 500, 1000 UG FOR 9 WK (STUDY DURATION: 9 WK), Dose: 0, 40, 62.5, 125, 250, 500, 1000 UG FOR 9 WK (STUDY DURATION: 9 WK), Tumor Site: Type of Lesion: LUNG: ADENOMA): active; positive
carcinogen call (Strain/Sex: STRAIN-A/FEMALE, Route: SUBCUTANEOUS, Dose: 0, 40, 62.5, 125, 250, 500, 1000 UG INJECTED IN THE SCAPULAR REGION OF NEWBORN MICE ONCE (STUDY DURATION: 9 WK), Dose: 0, 40, 62.5, 125, 250, 500, 1000 UG INJECTED IN THE SCAPULAR REGION OF NEWBORN MICE ONCE (STUDY DURATION: 9 WK), Tumor Site: Type of Lesion: LUNG: ADENOMA): active; positive
carcinogen call (Strain/Sex: STRAIN-A/MALE, FEMALE, Route: INTRAPERITONEAL, Dose: 2 MG, 1/WK, Tumor Site: Type of Lesion: PERITONEAL CAVITY: FIBROSARCOMA): active; positive
carcinogen call (Strain/Sex: STRAIN-A/MALE,FEMALE, Route: INTRAPERITONEAL, Tumor Site: Type of Lesion: PERITONEAL CAVITY: FIBROSARCOMA): active; positive
carcinogen call (Strain/Sex: STRAIN-A/MALE, Route: INTRAPERITONEAL, Dose: 0-200 MG/KG IN TRICAPRYLIN ONCE (STUDY DURATION: 8 MO), Tumor Site: Type of Lesion: LUNG: ADENOMA): active; positive
carcinogen call (Strain/Sex: STRAIN-A/MALE, Route: INTRAPERITONEAL, Dose: 0, 5, 10, 50, 100, 200 MG/KG BW ONCE (STUDY DURATION: 8 MO), Dose: 0, 5, 10, 50, 100, 200 MG/KG BW ONCE (STUDY DURATION: 8 MO), Tumor Site: Type of Lesion: LUNG: ADENOMA): active; positive
carcinogen call (Strain/Sex: STRAIN-A/MALE, Route: SUBCUTANEOUS, Dose: 0, 0.5, 1 MG IN 1% AQUEOUS GELATIN INJECTED IN THE SCAPULAR REGION OF NEWBORN MICE ONCE (STUDY DURATION: 9 WK), Dose: 0, 0.5, 1 MG IN 1% AQUEOUS GELATIN INJECTED IN THE SCAPULAR REGION OF NEWBORN MICE ONCE (STUDY DURATION: 9 WK), Tumor Site: Type of Lesion: LUNG: ADENOMA): active; positive
carcinogen call (Strain/Sex: STRAIN-A/MALE, Route: SUBCUTANEOUS, Dose: 0, 40, 62.5, 125, 250, 500, 1000 UG FOR 9 WK (STUDY DURATION: 9 WK), Dose: 0, 40, 62.5, 125, 250, 500, 1000 UG FOR 9 WK (STUDY DURATION: 9 WK), Tumor Site: Type of Lesion: LUNG: ADENOMA): active; positive
carcinogen call (Strain/Sex: STRAIN-A/MALE, Route: SUBCUTANEOUS, Dose: 0, 40, 62.5, 125, 250, 500, 1000 UG INJECTED IN THE SCAPULAR REGION OF NEWBORN MICE ONCE (STUDY DURATION: 9 WK), Dose: 0, 40, 62.5, 125, 250, 500, 1000 UG INJECTED IN THE SCAPULAR REGION OF NEWBORN MICE ONCE (STUDY DURATION: 9 WK), Tumor Site: Type of Lesion: LUNG: ADENOMA): active; positive
carcinogen call (Strain/Sex: SWISS/FEMALE, Route: DERMAL, Dose: 0, 1, 4, 8 NMOL IN 100 µL ACETONE 2/WK FOR 40 WK (STUDY DURATION: 48 WK), Dose: 0, 1, 4, 8 NMOL IN 100 µL ACETONE 2/WK FOR 40 WK (STUDY DURATION: 48 WK)): inactive; negative
